Reference: patent US10112907B2, “Substituted indazoles for treating tendon and/or ligament injuries” (NOVARTIS AG, priority 2016, dated 2018)

Test system: Scleraxis (Scx) gene transcriptional activation in TT-D6 Scx-luciferase (ScxL) cell line
Assay: SCX-LUC in vitro assay (Scx-luciferase reporter)
Type: cell-based
Details: Mus musculus, 96 h; Table 3; four days; read-out: Scx-Luc (EC50 μM)

EC50 [µM] | SMILES
0.362 | Cc1c(-c2ccc(S(=O)(=O)N[C@@H]3CCC[C@@H]3O)cc2Cl)ccc2[nH]nc(N)c12 [Example 39, 4-(3-amino-4-methyl-1H-indazol-5-yl)-3-chloro-N-((1R,2S)-2-hydroxycyclopentyl)benzenesulfonamide]
1.33 | COc1c(-c2ccc(S(=O)(=O)N3CC(F)(F)C[C@H]3CO)cc2F)ccc2[nH]nc(N)c12 [Example 41, (S)-(1-((4-(3-amino-4-methoxy-1H-indazol-5-yl)-3-fluorophenyl)sulfonyl)-4,4-difluoropyrrolidin-2-yl)methanol]
0.814 | Cc1c(-c2ccc(S(=O)(=O)N3CC(F)(F)C[C@H]3CO)cc2F)ccc2[nH]nc(N)c12 [Example 42, (S)-(1-((4-(3-amino-4-methyl-1H-indazol-5-yl)-3-fluorophenyl)sulfonyl)-4,4-difluoropyrrolidin-2-yl)methanol]
1.19 | Cc1cc(S(=O)(=O)N2CC(F)(F)C[C@H]2CO)ccc1-c1ccc2[nH]nc(N)c2c1F [Example 44, (S)-(1-((4-(3-amino-4-fluoro-1H-indazol-5-yl)-3-methylphenyl)sulfonyl)-4,4-difluoropyrrolidin-2-yl)methanol]
1.05 | Nc1n[nH]c2ccc(-c3ccc(S(=O)(=O)N4CC(F)(F)C[C@H]4CO)cc3Cl)c(F)c12 [Example 46, (S)-(1-((4-(3-amino-4-fluoro-1H-indazol-5-yl)-3-chlorophenyl)sulfonyl)-4,4-difluoropyrrolidin-2-yl)methanol]
0.986 | Nc1n[nH]c2ccc(-c3ccc(S(=O)(=O)N4CC(F)(F)C[C@H]4CO)cc3F)c(Cl)c12 [Example 47, (S)-(1-((4-(3-amino-4-chloro-1H-indazol-5-yl)-3-fluorophenyl)sulfonyl)-4,4-difluoropyrrolidin-2-yl)methanol]
0.854 | Cc1cc(S(=O)(=O)N[C@H]2CCC[C@H]2O)ccc1-c1ccc2[nH]nc(N)c2c1C [Example 48, 4-(3-amino-4-methyl-1H-indazol-5-yl)-N-((1S,2R)-2-hydroxycyclopentyl)-3-methylbenzenesulfonamide]
0.578 | Cc1cc(S(=O)(=O)NC2CC(O)(c3ccccc3)C2)ccc1-c1ccc2[nH]nc(N)c2c1C (stereo not shown) [Example 52, 4-(3-amino-4-methyl-1H-indazol-5-yl)-N-(3-hydroxy-3-phenylcyclobutyl)-3-methylbenzenesulfonamide]
0.74 | Nc1n[nH]c2ccc(-c3ccc(S(=O)(=O)N4CC(F)(F)C[C@H]4CO)cc3Cl)c(Cl)c12 [Example 53, (S)-(1-((4-(3-amino-4-chloro-1H-indazol-5-yl)-3-chlorophenyl)sulfonyl)-4,4-difluoropyrrolidin-2-yl)methanol]
0.764 | Cc1c(-c2ccc(S(=O)(=O)N3CC(F)(F)C[C@H]3CO)cc2Cl)ccc2[nH]nc(N)c12 [Example 56, (S)-(1-((4-(3-amino-4-methyl-1H-indazol-5-yl)-3-chlorophenyl)sulfonyl)-4,4-difluoropyrrolidin-2-yl)methanol]
2.71 | Cc1cc(S(=O)(=O)N2CCC(C)(O)C2)ccc1-c1ccc2[nH]nc(N)c2c1C (stereo not shown) [Example 57, 1-((4-(3-amino-4-methyl-1H-indazol-5-yl)-3-methylphenyl)sulfonyl)-3-methylpyrrolidin-3-ol]
1.33 | Cc1cc(S(=O)(=O)N[C@H]2CCC[C@]2(C)O)ccc1-c1ccc2[nH]nc(N)c2c1C [Example 58, 4-(3-amino-4-methyl-1H-indazol-5-yl)-N-((1S,2S)-2-hydroxy-2-methylcyclopentyl)-3-methylbenzenesulfonamide]
3.32 | Cc1cc(S(=O)(=O)N[C@H]2CCC[C@@]2(C)O)ccc1-c1ccc2[nH]nc(N)c2c1C [Example 59, 4-(3-amino-4-methyl-1H-indazol-5-yl)-N-((1S,2R)-2-hydroxy-2-methylcyclopentyl)-3-methylbenzenesulfonamide]
1.61 | Cc1cc(S(=O)(=O)N2CCC[C@H]2C(C)O)ccc1-c1ccc2[nH]nc(N)c2c1C (stereo partly drawn) [Example 60, 1-((S)-1-((4-(3-amino-4-methyl-1H-indazol-5-yl)-3-methylphenyl)sulfonyl)pyrrolidin-2-yl)ethan-1-ol]
1.5 | Nc1n[nH]c2ccc(-c3ccc(S(=O)(=O)N4CC(F)(F)C[C@H]4CO)cc3F)c(F)c12 [Example 61, (S)-(1-((4-(3-amino-4-fluoro-1H-indazol-5-yl)-3-fluorophenyl)sulfonyl)-4,4-difluoropyrrolidin-2-yl)methanol]
0.63 | Cc1cc(S(=O)(=O)N2CCC(O)(C(F)(F)F)C2)ccc1-c1ccc2[nH]nc(N)c2c1C (stereo not shown) [Example 62, 1-((4-(3-amino-4-methyl-1H-indazol-5-yl)-3-methylphenyl)sulfonyl)-3-(trifluoromethyl)pyrrolidin-3-ol]
0.474 | Nc1n[nH]c2ccc(-c3ccc(S(=O)(=O)N[C@H]4C[C@](O)(C(F)(F)F)C4)cc3Cl)c(Cl)c12 [Example 64, 4-(3-amino-4-chloro-1H-indazol-5-yl)-3-chloro-N-((1s,3s)-3-hydroxy-3-(trifluoromethyl)cyclobutyl)benzenesulfonamide]
1.22 | COc1c(-c2ccc(S(=O)(=O)N[C@H]3C[C@](O)(C(F)(F)F)C3)cc2Cl)ccc2[nH]nc(N)c12 [Example 65, 4-(3-amino-4-methoxy-1H-indazol-5-yl)-3-chloro-N-((1s,3s)-3-hydroxy-3-(trifluoromethyl)cyclobutyl)benzenesulfonamide]
1.08 | Cc1cc(S(=O)(=O)NC2CC(F)(F)C2)ccc1-c1ccc2[nH]nc(N)c2c1Cl [Example 66, 4-(3-amino-4-chloro-1H-indazol-5-yl)-N-(3,3-difluorocyclobutyl)-3-methylbenzenesulfonamide]
0.535 | Nc1n[nH]c2ccc(-c3ccc(S(=O)(=O)NC4CC(F)(F)C4)cc3Cl)c(Cl)c12 [Example 67, 4-(3-amino-4-chloro-1H-indazol-5-yl)-3-chloro-N-(3,3-difluorocyclobutyl)benzenesulfonamide]
1.86 | Cc1c(-c2ccc(S(=O)(=O)NC3CC(F)(F)C3)cc2Cl)ccc2[nH]nc(N)c12 [Example 68, 4-(3-amino-4-methyl-1H-indazol-5-yl)-3-chloro-N-(3,3-difluorocyclobutyl)benzenesulfonamide]
0.282 | COc1c(-c2ccc(S(=O)(=O)NC3CC(O)(C(F)(F)F)C3)cc2C)ccc2[nH]nc(N)c12 (stereo not shown) [Example 70, 4-(3-amino-4-methoxy-1H-indazol-5-yl)-N-((1s,3s)-3-hydroxy-3-(trifluoromethyl)cyclobutyl)-3-methylbenzenesulfonamide]
0.108 | Cc1cc(S(=O)(=O)NC2CC(O)(C(F)(F)F)C2)ccc1-c1ccc2[nH]nc(N)c2c1F (stereo not shown) [Example 71, 4-(3-amino-4-fluoro-1H-indazol-5-yl)-N-((1s,3s)-3-hydroxy-3-(trifluoromethyl)cyclobutyl)-3-methylbenzenesulfonamide]
0.177 | Nc1n[nH]c2ccc(-c3ccc(S(=O)(=O)NC4CC(O)(C(F)(F)F)C4)cc3Cl)c(F)c12 (stereo not shown) [Example 72, 4-(3-amino-4-fluoro-1H-indazol-5-yl)-3-chloro-N-((1s,3s)-3-hydroxy-3-(trifluoromethyl)cyclobutyl)benzenesulfonamide]
0.286 | COc1c(-c2ccc(S(=O)(=O)N[C@@H]3CCC[C@@H]3O)cc2Cl)ccc2[nH]nc(N)c12 [Example 74]
